Source: patent publication US5183828A, “Polyhydroxybenzoic acid derivatives” (priority 1990, dated 1993)
Counter-ions that a name gives are not always drawn. Each block holds one compound with its values, some of them ahead of it.

Key:
L1210 leukemia = test: antitumor activity in L1210 leukemia (percent increase in survival time), Table 2; format: in vivo, mice; details: 8 days; for ILS at 100 mg/kg: 100 mg/kg ip daily; for ILS at 200 mg/kg: 200 mg/kg ip daily
Method: Testing of the compounds of this invention against L-1210 lymphoid leukemia were carried out as follows: L-1210 leukemia was maintained by weekly passage of 10^5 L-1210 cells intraperitoneally into DBA/2 mice. Diluted ascitic fluid, 0.1 ml. (10^5 cells), was administered ip to female B6D2 F1 mice weighing about 20 g. Drugs were administered ip 24 hours after tumor transplantation and injections were continued daily for a total of eight days. A group of control mice receiving only the injection medium were maintained. Table 2 which follows gives the antitumor activity against L-1210 leukemia for certain compounds of this invention. In the table, column 1 gives the name of the compound, column 2 the dose in mg./kg., and column 3 the percent increase in survival time over controls at each dose level.

[1] = free radical scavenging ability (destruction of diphenylpicrylhydrazyl), Table 7; details: 100 μM diphenylpicrylhydrazyl in acetone; test compound 25 μM, 2.5 μM (footnote)
Source text: It is believed that the antineoplastic activity of the compounds of this invention is due in parts to their ability to scavenge free-radicals. Additionally, the compounds of this invention are cancer protective agents and this utility also may be a manifestation of their free-radical scavenging capability. Free-radical scavenging agents may also be useful in detoxifying mammals in whom an excess of free radicals is a cause and/or result of the toxicity. Other possible uses of free radical scavengers are to inhibit protaglandin transformation, leucotriene interconversion and lipogenesis, to act as inflammatory modulators and as food additive or preservatives to prevent lipid oxidation. The free radical scavenging ability of the compounds of the invention was determined by measuring the destruction of the stable free radical, diphenylpicrylhydrazyl, in the presence of the test compound in a manner similar to that reported by […] and Herzmann, Naturwiss, 47, 133-134 (1960). […] The test compound was added at a final concentration of 25 μM and the rate of reduction of absorpotion at […] was observed. Table 7 below gives the free radical scavenging abilities of the compounds of this invention expresses as the initial rate of decrease in optical density units/min.

L1210 = test: antileukemia activity of nitriles vs L1210, Table 8; format: in vivo
Source text: Table 8 which follows gives anti-tumor data vs L-1210 and P-388 leukemia for these novel nitriles.

ribonucleotide reductase = ribonucleotide reductase inhibition (conversion of CDP to dCDP), Table 1; format: biochemical; details: enzyme partially purified from HeLa cells or Ehrlich ascites cells; 40 min, 30° C; read-out: ID50 (inhibitory dose which inhibits ribonucleotide reductase by 50%)
Source text: Compounds represented by formula I above have the ability to inhibit ribonucleotide reductase, an enzyme involved in the reductive conversion of ribonucleotides to deoxyribonucleotides. This enzymatic reaction is a rate controlling step in the biosynthetic pathway leading to DNA and cell replication. In general, the ribonucleotide reductase level is closely correlated with cellular replication. […] In addition, the compounds have shown activity against P388 leukemia and B16 melanoma.
The results of biological tests of compounds according to formula I are incorporated in a series of Tables which follow. Table 1 gives ribonucleotide reductase data for representative compounds of formula I. In the table, column 1 gives the substitution pattern in the benzene- ring, column 2, the (CHR")m group, column 3, the [drawing 5] group, and column 4, the ID50 (inhibitory dose in micromolar concentration which inhibits ribonucleotide reductase by 50%) in μmoles.
In the above determination of ID50 's in Table 1, ribonucleotide reductase is partially purified from HeLa cells or Ehrlich ascites cells by a procedure similar to that set forth by Elford et al. J. Biol. Chem., 245, 5228 (1970). The activity of the enzyme was measured by a slightly modified assay procedure originally developed by Reichard et al. id, 236, 1150 (1969). This procedure measures the conversion of CDP to dCDP. The assay mixture (0.34 ml.) contains 3 μCi of [^3 H] CDP (specific activity […]), 3.3 μmole ATP, 5.9 μmoles magnesium chloride, 8.8 μmoles Hepes buffer at pH=7.5, 15 μmoles dithiothreitol and enzyme protein between 0.4 and 1.3 mg. Incubation was provided for forty minutes at 30° C. Ion exchange chromatography employing Dowex 50 (H^+) resin is used to separate the product from the substrate. The inhibitors were dissolved in water and a mixture of water and up to 1% ethanol or 2% dimethylsulfoxide, neither one of which inhibited the enzyme at these concentrations. Each inhibitor was tested at a minimum of three concentrations and the active compounds reassayed at least one additional time. ID50 's (μmolar) were estimate from graphs summarizing results for each compound.

[2] = test system: superoxide (xanthine oxidase reaction or human leukocytes); test: effect on superoxide generation in vitro; format: biochemical
Method: The rate of production of superoxide from the xanthine oxidase reaction or from human leukocytes activated with phorbol myristate acetate was measured spectrophotometrically as the superoxide dismutase (SOD)-inhibitable portion of the reduction of ferricytochrome c or nitroblue tetrazolium (NBT). All assays were carried out at 37° C., pH 7.1. For the superoxide production by the xanthine oxidase reaction, a concentration of 0.04 U/ml of xanthine oxidase was used with 0.1 mM xanthine as substrate. Absorbances were measured in the presence of 30 U/ml of SOD and in its absence. The indicators were either ferricytochrome c or NBT in a concentration of 20 uM. The initial rate of reduction of NBT was monitored at 530 nm and that of cytochrome c at 550 nm. Extinction coefficients were 21.4×10 ^3 /M cm for cytochrome c and 17.9×10^3 /M cm for NBT. The initial rate of production of superoxide from leukocytes was measured using a concentration of 20 uM ferricytochrome c or NBT as described above in the presence and absence of 30 U/ml of SOD.

[3] = Mus musculus, L1210, 192 h, 300 mg/kg ip daily

Compound: Cl.N=C(N)c1ccc(O)c(O)c1 [3,4-dihydroxybenzamidine-HCl]
ILS at 52 mg/kg (L1210 leukemia; Mus musculus, L1210, 192 h, 52 mg/kg ip daily): 26.8%
ILS at 100 mg/kg (L1210 leukemia; Mus musculus, L1210, 192 h): 58.3%
ILS at 104 mg/kg (L1210 leukemia; Mus musculus, L1210, 192 h, 104 mg/kg ip daily): 34.1%
ILS at 200 mg/kg (L1210 leukemia; Mus musculus, L1210, 192 h): 41.7%
ILS at 300 mg/kg (L1210 leukemia; [3]): 47.2%
ILS at 400 mg/kg (L1210 leukemia; Mus musculus, L1210, 192 h, 400 mg/kg ip daily): 47.8%
ILS at 603 mg/kg (L1210 leukemia; Mus musculus, L1210, 192 h, 603 mg/kg ip daily): 83%
initial rate of decrease in optical density (518 nm) [1]: 1.721 units/min.

Compound: ON=C(NO)c1ccc(O)c(O)c1 [3,4-dihydroxybenzohydroxyamidoxime-HCl, 3,4-Dihydroxybenzohydroxyamidoxime hydrochloride]
ILS at 155 mg/kg (L1210 leukemia; Mus musculus, L1210, 192 h, 155 mg/kg ip daily): 39%
ILS at 200 mg/kg (L1210 leukemia; Mus musculus, L1210, 192 h): 47.8%
ILS at 300 mg/kg (L1210 leukemia; [3]): 41.3%

Compound: N#Cc1cc(O)c(O)c(O)c1O [2,3,4,5-tetrahydroxybenzonitrile]
% Increase in Survival Time (L1210; 163 mg/kg): 48.4%
% Increase in Survival Time (L1210; 230 mg/kg): Toxic

Compound: N#Cc1ccc(O)c(O)c1O [2,3,4-trihydroxybenzonitrile]
% Increase in Survival Time (L1210; 50 mg/kg): 11.0%
% Increase in Survival Time (L1210; 100 mg/kg): 26.0%
% Increase in Survival Time (L1210; 155 mg/kg): 12.1%
% Increase in Survival Time (L1210; 259 mg/kg): Toxic
% Increase in Survival Time (L1210; 327 mg/kg): Toxic

Compound: CCOC(=N)c1cc(O)c(O)c(O)c1 [drawing 13]
IC50 (ribonucleotide reductase): 15 µM

Compound: NC(=NO)c1ccc(O)c(O)c1O [drawing 17]
IC50 (ribonucleotide reductase): 7 µM

Compound: NC(=NO)c1cc(O)c(O)c(O)c1 [drawing 12]
IC50 (ribonucleotide reductase): 5 µM

Compound: ON=C(NO)c1cc(O)c(O)c(O)c1 [drawing 16]
IC50 (ribonucleotide reductase): 25 µM

Compound: CCOC(=N)c1ccc(O)c(O)c1 [drawing 9]
IC50 (ribonucleotide reductase): 12 µM

Compound: N#Cc1ccc(O)c(O)c1 [3,4-dihydroxybenzonitrile]
% Increase in Survival Time (L1210; 47.6 mg/kg): 4.7%
% Increase in Survival Time (L1210; 95.2 mg/kg): 15.6%
% Increase in Survival Time (L1210; 196 mg/kg): Toxic

Compound: ON=C(NO)c1ccc(O)c(O)c1 [drawing 11]
IC50 (ribonucleotide reductase): 40 µM

Compound: N#Cc1c(O)c(O)c(O)c(O)c1O [pentahydroxybenzonitrile]
% Increase in Survival Time (L1210; 34.3 mg/kg): 14.2%
% Increase in Survival Time (L1210; 51.5 mg/kg): 0%
% Increase in Survival Time (L1210; 77.2 mg/kg): Toxic
% Increase in Survival Time (L1210; 116.0 mg/kg): Toxic

Compound: N=C(N)c1ccc(O)c(O)c1 [drawing 10]
IC50 (ribonucleotide reductase): 20 µM

Compound: CCOC(=N)c1ccc(O)c(O)c1 [ethyl 3,4-dihydroxybenzamidate-HCl, ethyl 3,4-dihydroxybenzamidate hydrochloride]
% Increase in Survival Time (L1210 leukemia; 218 mg/kg ip daily): toxic
% Increase in Survival Time (L1210 leukemia; 327 mg/kg ip daily): toxic
% Increase in Survival Time (L1210 leukemia; 435 mg/kg ip daily): toxic
initial rate of decrease in optical density (518 nm) [1]: 0.706 units/min.

Compound: NC(=NO)c1cccc(O)c1O
IC50 (ribonucleotide reductase): 18 µM

Compound: NC(=NO)C(O)c1ccc(O)c(O)c1.O (stereo not shown) [3,4-dihydroxymandelamidoxime, 3,4-dihydroxymandelamidoxime monohydrate]
ILS at 435 mg/kg (L1210 leukemia; Mus musculus, L1210, 192 h, 435 mg/kg ip daily): 45.2%
ILS at 606 mg/kg (L1210 leukemia; Mus musculus, L1210, 192 h, 606 mg/kg ip daily): 45.2%
initial rate of decrease in optical density (518 nm) [1]: 0.383 units/min.

Compound: NC(=NO)c1ccc(O)c(O)c1 [drawing 8]
IC50 (ribonucleotide reductase): 8 µM

Compound: Cl.NC(=NO)c1cccc(O)c1O [2,3-dihydroxybenzamidoxime-HCl]
% Increase in Survival Time (L1210 leukemia; 300 mg/kg ip daily): toxic

Compound: NC(=NO)c1ccc(O)c(O)c1O [2,3,4-trihydroxybenzamidoxime-HCl, 2,3,4-trihydroxybenzamidoxime]
% Increase in Survival Time (L1210 leukemia; 300 mg/kg ip daily): toxic
ILS at 100 mg/kg (L1210 leukemia; Mus musculus, L1210, 192 h): 38.9%
ILS at 200 mg/kg (L1210 leukemia; Mus musculus, L1210, 192 h): 36.1%
ILS at 218 mg/kg (L1210 leukemia; Mus musculus, L1210, 192 h, 218 mg/kg ip daily): 67.7%

Cytochrome C Reduction ([2]; 10 uM compound): 4.89 nmol
NBT Reduction ([2]; 10 uM compound): 7.60 nmol
Cytochrome C Reduction ([2]; 20 uM compound): 3.21 nmol
NBT Reduction ([2]; 20 uM compound): 6.10 nmol
Cytochrome C Reduction ([2]; 50 uM compound): 2.22 nmol
NBT Reduction ([2]; 50 uM compound): 3.67 nmol
Cytochrome C Reduction ([2]; 100 uM compound): 1.91 nmol
NBT Reduction ([2]; 100 uM compound): 1.78 nmol
NBT Reduction ([2]; 200 uM compound): 1.45 nmol
NBT Reduction ([2]; 500 uM compound): 1.23 nmol
Compound: 3,4,5-TRIHYDROXYBENZAMIDATE

Compound: N=C(N)c1cc(O)c(O)c(O)c1 [drawing 14]
IC50 (ribonucleotide reductase): 25 µM

Compound: ON=C(NO)c1cc(O)c(O)c(O)c1 [3,4,5-trihydroxybenzohydroxyamidoxime-HCl]
ILS at 100 mg/kg (L1210 leukemia; Mus musculus, L1210, 192 h): 47.2%
ILS at 200 mg/kg (L1210 leukemia; Mus musculus, L1210, 192 h): 55.6%
ILS at 300 mg/kg (L1210 leukemia; [3]): 63.9%
initial rate of decrease in optical density (518 nm) [1]: 0.882 units/min.
